Type in all cases: in vivo
For series [1], the system named is sexually mature female rats. Put plainly: Inhibition of ovulation in rats. As to conditions: 0.5 μg/rat for 17 days. On the procedure:
(c) Inhibition of ovulation in rats
The compound was administered for 17 days in a dose of 0.5 μg/rats to sexually mature female rats. The inhibition of ovulation was 100%. The experimental method is described in B.B.R.C. 118, 351 […] Kovacs et al.

Series [2] has as its system sexually matured female rabbits. In words: Induction of ovulation in angora rabbit. As to conditions: single dose of 1.5 μg/rabbit, thereafter artificially inseminated. How it is done: (d) Induction of ovulation in angora rabbit
The sexually matured female rabbits were administered with a single does of 1.5 μg/rabbit, thereafter artificially inseminated. 90% of the animals became pregnant.

Series [3] relates to rats. In words: Toxicity in rats, single dose. Conditions: single dose of 10 mg/kg. An excerpt:
(§1) The toxicity data of Asu^6, desGly^10 -GnRH-ethylamide are as follows: […]

Series [4] relates to rats. Put plainly: Toxicity in rats, administration for 17 days. Conditions: 10 μg/rat for 17 days.
Description: as §1

The test system of a further series is LH hormone. Put plainly: LH concentration in the serum of male mice after subcutaneous administration (radioimmunoassay). Conditions: dose 200 ng/mouse; for LH serum level in mice after the treatments, 2 hours: 2 hours after treatment; for LH serum level in mice after the treatments, 4 hours: 4 hours after treatment; for LH serum level in mice after the treatments, 6 hours: 6 hours after treatment. How it is done:
The common feature of the superactive GnRH analogues is that they liberate many times the amount of LH hormone than the natural GnRH could do and the duration of their effect is also much longer. In order to illustrate the above statements the activity for liberating LH hormone of the natural GnRH analogues and some superactive and some representatives of the GnRH analogues of formula I according to the invention are shown in FIG. 1. The experiments were carried out on male mice, the active ingredient was administered subcutaneously and the LH content of the serum of the blood of the animals was measured by radioimmunoassay.
Table I summarizes the biological data of a preferable representative of the GnRH analogues of formula I, Asu^6 -desGly^10 -GnRH-ethylamide.

Here are results for two substances from patent US4948873A, “Gonadoliberine analogues of high activity” (Richter Gedeon Vegyeszeti Gyar, priority 1985, dated 1990).

As to “Glp-His-Trp-Ser-Tyr-Asu-Leu-Arg-Pro-ethylamide [Asu^6,desGly^10 -GnRH-ethylamide]”, the inhibition of ovulation in series [1] was found to be 100%. The “animals that became pregnant” value in series [2] is listed as 90%. Besides, the toxicity entry with rats [3] is listed as “did not prove to be toxic”. Further, the toxicity entry in the series with rats [4] is “atoxic”. For the same substance, in the series on LH hormone, the “LH serum level in mice after the treatments, 2 hours” value worked out at 958.4 ng/mL; the “LH serum level in mice after the treatments, 4 hours” value came to 702.3 ng/mL; the “LH serum level in mice after the treatments, 6 hours” value stood at 216.2 ng/mL.

Take “GnRh: native gonadoliberine peptide hormone of hypothalamic origin [reference compound]”: in the series on LH hormone, the “LH serum level in mice after the treatments, 2 hours” value worked out at 85.2 ng/mL; the “LH serum level in mice after the treatments, 4 hours” value is 81.4 ng/mL; the “LH serum level in mice after the treatments, 6 hours” value was determined as 87.0 ng/mL.
